Laboratory results taken from US9580416B2, “Inhibitors of Bruton's tyrosine kinase” (PHARMACYCLICS LLC, priority 2014, dated 2017).

Tests used:
Assay type in all cases: biochemical
Btk = Btk (Homo sapiens, UniProt Q06187); test: Btk kinase activity, TR-FRET assay; settings: read-out: Btk (IC50)
Outline: (§1)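 Enzyme (Btk 0.5 nM; Lck 6 nM) reacted 1 h with inhibitor, ATP at Km and biotin-peptide substrate in pH 7.4 buffer, 10% DMSO. Phosphopeptide detected by Eu-p-Tyr100 antibody plus streptavidin-APC (665/615 nm). IC50 calculated from fitted Ki(app) via ATP/Km correction plus half total enzyme.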

Lck = Lck (Homo sapiens, UniProt P06239); test: Lck kinase activity, TR-FRET assay; settings: read-out: LCK (IC50)
Outline: as §1

EGFR = EGFR (Homo sapiens, UniProt P00533); test: Inhibition of a panel of kinases, in vitro HotSpot kinase assay: EGFR
Procedure: (§2) The degree of inhibition of a panel of kinases is determined using the in vitro HotSpot kinase assay (purified enzymes, ^33P-ATP, an appropriate substrate and 1 uM ATP).

JAK3 = biological target: T1, JAK3 (Homo sapiens, UniProt P52333); test: Inhibition of a panel of kinases, in vitro HotSpot kinase assay: JAK3
T1 sequence (P52333 1-1124): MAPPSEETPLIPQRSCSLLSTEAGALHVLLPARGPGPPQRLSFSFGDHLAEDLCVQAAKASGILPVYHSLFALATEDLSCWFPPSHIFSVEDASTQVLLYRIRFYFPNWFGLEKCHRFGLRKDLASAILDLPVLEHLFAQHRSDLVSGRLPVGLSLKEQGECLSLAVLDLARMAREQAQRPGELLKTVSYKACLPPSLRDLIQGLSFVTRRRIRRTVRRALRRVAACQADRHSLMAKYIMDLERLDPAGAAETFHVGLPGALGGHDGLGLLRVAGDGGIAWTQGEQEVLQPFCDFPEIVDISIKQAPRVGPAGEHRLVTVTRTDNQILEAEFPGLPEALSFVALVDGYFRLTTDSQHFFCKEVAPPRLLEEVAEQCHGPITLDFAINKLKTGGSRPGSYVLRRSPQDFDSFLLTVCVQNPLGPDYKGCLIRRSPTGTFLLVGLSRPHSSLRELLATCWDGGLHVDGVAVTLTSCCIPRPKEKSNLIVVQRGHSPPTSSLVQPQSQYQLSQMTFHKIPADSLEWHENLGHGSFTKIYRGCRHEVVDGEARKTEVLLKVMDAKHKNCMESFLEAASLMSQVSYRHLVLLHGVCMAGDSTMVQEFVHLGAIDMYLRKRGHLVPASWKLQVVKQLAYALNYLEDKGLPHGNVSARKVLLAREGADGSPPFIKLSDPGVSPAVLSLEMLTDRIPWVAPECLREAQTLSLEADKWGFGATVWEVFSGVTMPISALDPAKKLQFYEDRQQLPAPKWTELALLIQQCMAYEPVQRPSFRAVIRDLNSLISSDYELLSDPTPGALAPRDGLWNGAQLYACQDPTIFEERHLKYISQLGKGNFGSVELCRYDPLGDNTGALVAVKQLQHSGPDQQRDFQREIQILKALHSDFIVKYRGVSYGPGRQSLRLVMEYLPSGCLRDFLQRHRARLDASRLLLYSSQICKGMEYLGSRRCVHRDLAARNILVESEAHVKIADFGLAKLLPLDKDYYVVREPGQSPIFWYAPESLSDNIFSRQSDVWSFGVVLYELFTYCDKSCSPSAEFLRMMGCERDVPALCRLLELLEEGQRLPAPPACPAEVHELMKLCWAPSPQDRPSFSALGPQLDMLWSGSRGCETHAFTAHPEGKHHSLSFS
Procedure: as §2

EGFR, sequence (P00533 25-1210): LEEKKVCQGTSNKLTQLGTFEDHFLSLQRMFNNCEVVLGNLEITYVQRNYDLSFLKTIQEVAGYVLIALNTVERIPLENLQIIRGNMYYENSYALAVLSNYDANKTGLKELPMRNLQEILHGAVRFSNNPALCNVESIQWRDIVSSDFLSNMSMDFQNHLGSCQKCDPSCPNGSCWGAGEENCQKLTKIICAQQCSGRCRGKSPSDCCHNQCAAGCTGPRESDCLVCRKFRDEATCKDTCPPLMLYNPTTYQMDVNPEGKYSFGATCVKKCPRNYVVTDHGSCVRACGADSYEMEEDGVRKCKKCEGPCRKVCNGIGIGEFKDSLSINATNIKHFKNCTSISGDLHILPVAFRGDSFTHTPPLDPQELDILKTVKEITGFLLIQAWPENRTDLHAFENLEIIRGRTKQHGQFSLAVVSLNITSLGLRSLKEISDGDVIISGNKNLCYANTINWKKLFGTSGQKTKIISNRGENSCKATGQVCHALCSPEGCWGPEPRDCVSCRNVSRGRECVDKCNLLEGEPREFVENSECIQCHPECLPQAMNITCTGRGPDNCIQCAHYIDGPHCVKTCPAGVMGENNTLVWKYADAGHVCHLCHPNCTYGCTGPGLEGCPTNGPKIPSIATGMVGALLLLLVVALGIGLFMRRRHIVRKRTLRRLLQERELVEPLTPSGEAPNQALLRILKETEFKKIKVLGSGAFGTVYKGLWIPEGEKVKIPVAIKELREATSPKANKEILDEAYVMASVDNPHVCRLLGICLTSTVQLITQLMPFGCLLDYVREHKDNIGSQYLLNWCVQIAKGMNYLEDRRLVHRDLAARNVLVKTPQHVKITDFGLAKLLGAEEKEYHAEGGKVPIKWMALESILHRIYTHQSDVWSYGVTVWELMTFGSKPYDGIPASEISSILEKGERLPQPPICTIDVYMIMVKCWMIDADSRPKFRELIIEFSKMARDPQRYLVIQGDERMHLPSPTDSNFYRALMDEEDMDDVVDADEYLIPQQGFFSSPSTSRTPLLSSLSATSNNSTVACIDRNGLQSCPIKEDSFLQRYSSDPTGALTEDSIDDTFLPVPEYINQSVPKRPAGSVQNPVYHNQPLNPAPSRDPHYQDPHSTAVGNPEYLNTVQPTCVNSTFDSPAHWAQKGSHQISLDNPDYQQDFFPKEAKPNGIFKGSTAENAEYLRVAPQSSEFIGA
Lck, sequence (P06239 whole entry, species assumed): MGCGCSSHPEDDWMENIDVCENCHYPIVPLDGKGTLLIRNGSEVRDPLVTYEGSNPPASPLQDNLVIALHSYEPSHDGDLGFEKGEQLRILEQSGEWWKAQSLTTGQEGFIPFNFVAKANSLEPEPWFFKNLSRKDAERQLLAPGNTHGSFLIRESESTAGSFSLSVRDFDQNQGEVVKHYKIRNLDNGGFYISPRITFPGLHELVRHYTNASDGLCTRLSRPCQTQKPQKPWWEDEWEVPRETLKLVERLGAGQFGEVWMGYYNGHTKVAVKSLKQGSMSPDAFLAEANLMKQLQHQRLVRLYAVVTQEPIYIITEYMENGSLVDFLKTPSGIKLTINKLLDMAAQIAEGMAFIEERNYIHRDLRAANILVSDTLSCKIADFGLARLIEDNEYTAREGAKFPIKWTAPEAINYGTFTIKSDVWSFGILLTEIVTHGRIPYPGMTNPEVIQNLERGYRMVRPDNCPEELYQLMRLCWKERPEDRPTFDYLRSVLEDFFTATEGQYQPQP
Btk, sequence (Q06187 whole entry): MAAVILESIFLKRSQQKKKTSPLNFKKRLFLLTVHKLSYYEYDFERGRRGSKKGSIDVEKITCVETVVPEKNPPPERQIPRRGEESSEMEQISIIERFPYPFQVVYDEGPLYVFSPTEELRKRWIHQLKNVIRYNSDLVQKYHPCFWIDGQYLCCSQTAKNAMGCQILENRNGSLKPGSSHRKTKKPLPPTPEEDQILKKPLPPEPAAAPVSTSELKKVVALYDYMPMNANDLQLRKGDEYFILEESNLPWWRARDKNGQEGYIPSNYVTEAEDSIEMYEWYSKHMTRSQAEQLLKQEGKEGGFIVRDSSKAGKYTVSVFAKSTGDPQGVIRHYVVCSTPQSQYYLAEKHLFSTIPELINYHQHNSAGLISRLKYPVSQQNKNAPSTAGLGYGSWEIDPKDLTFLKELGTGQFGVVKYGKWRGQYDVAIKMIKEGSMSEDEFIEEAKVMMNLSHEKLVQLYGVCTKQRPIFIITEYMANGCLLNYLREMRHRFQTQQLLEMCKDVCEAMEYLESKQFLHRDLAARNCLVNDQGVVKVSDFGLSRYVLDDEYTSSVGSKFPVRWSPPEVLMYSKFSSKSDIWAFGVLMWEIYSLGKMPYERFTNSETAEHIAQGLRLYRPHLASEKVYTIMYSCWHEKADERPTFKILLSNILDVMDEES

Row | IC50 (Btk) | IC50 (Lck) | IC50 (EGFR) | IC50 (JAK3) | SMILES
1 | 100 to 1000 nM | > 10000 nM | > 10000 nM | > 10000 nM | CCNC(=O)N[C@H]1CCCN(c2n[nH]c3nccc(Oc4ccc(C(=O)Nc5cc(C(F)(F)F)ccn5)cc4)c23)C1 [compound 234, 4-({3-[(3S)-3-[(ethylcarbamoyl)amino]piperidin-1-yl]-1H-pyrazolo[3,4-b]pyridin-4-yl}oxy)-N-[4-(trifluoromethyl)pyridin-2-yl]benzamide]
2 | 100 to 1000 nM | 1000 to 10000 nM | 1000 to 10000 nM | > 10000 nM | Cc1ccnc(NC(=O)c2ccc(Oc3ccnc4[nH]nc(NC5CCN(C(=O)C6(C#N)CC6)CC5)c34)cc2)c1 [compound 277, 4-(3-(1-(1-cyanocyclopropanecarbonyl)piperidin-4-ylamino)-1H-pyrazolo[3,4-b]pyridin-4-yloxy)-N-(4-methylpyridin-2-yl)benzamide]
3 | < 100 nM | 1000 to 10000 nM | > 10000 nM | > 10000 nM | CCNC(=O)N1CCC[C@@H](Nc2n[nH]c3nccc(Oc4ccc(C(=O)Nc5cc(C)ccn5)cc4)c23)C1 [compound 227, (R)-N-ethyl-3-(4-(4-(4-methylpyridin-2-ylcarbamoyl)phenoxy)-1H-pyrazolo[3,4-b]pyridin-3-ylamino)piperidine-1-carboxamide]
4 | < 100 nM | < 100 nM | < 100 nM | 100 to 1000 nM | C=CC(=O)N1CCC[C@@H](Nc2n[nH]c3nccc(Oc4ccc(Oc5ccccc5)cc4)c23)C1 [compound 6, 1-[(3R)-3-{[4-(4-phenoxyphenoxy)-1H-pyrazolo[3,4-b]pyridin-3-yl]amino}piperidin-1-yl]prop-2-en-1-one]
5 | 100 to 1000 nM | > 10000 nM | 100 to 1000 nM | < 100 nM | C=CC(=O)N1CCC[C@@H](Nc2n[nH]c3nccc(Oc4ccc(C(=O)Nc5nnc(C)s5)cc4)c23)C1 [compound 187]
6 | 100 to 1000 nM | 100 to 1000 nM | > 10000 nM | > 10000 nM | Cc1ccnc(NC(=O)c2ccc(Oc3ccnc4[nH]nc(NC5CCN(C(=O)C6(C)CCN(C)CC6)CC5)c34)cc2)c1 [compound 284, 4-(3-(1-(1,4-dimethylpiperidine-4-carbonyl)piperidin-4-ylamino)-1H-pyrazolo[3,4-b]pyridin-4-yloxy)-N-(4-methylpyridin-2-yl)benzamide]
7 | < 100 nM | 1000 to 10000 nM | 1000 to 10000 nM | < 100 nM | C=CC(=O)N1CCC[C@@H](Nc2n[nH]c3nccc(Oc4ccc(C(=O)Nc5nc(C)cs5)cc4)c23)C1 [compound 143]
8 | < 100 nM | 1000 to 10000 nM | > 10000 nM | > 10000 nM | CC1(C(=O)N2CCC[C@@H](Nc3n[nH]c4nccc(Oc5ccc(C(=O)Nc6ccccn6)cc5)c34)C2)COC1 [compound 111, 4-[(3-{[(3R)-1-(3-methyloxetane-3-carbonyl)piperidin-3-yl]amino}-1H-pyrazolo[3,4-b]pyridin-4-yl)oxy]-N-(pyridin-2-yl)benzamide]
9 | < 100 nM | 100 to 1000 nM | 100 to 1000 nM | 100 to 1000 nM | Cc1ccnc(NC(=O)c2ccc(Oc3ccnc4[nH]nc(N[C@@H]5CCCN(C(=O)C#CCO)C5)c34)cc2)c1 [compound 282, (R)-4-(3-(1-(4-hydroxybut-2-ynoyl)piperidin-3-ylamino)-1H-pyrazolo[3,4-b]pyridin-4-yloxy)-N-(4-methylpyridin-2-yl)benzamide]
10 | < 100 nM | 1000 to 10000 nM | > 10000 nM | > 10000 nM | Cc1ccnc(NC(=O)c2ccc(Oc3ccnc4[nH]nc(N[C@@H]5CCCN(C(=O)C6(C)CCN(C(=O)OC(C)(C)C)CC6)C5)c34)cc2)c1 [compound 103, tert-butyl 4-methyl-4-[(3R)-3-[(4-{4-[(4-methylpyridin-2-yl)carbamoyl]phenoxy}-1H-pyrazolo[3,4-b]pyridin-3-yl)amino]piperidine-1-carbonyl]piperidine-1-carboxylate]
11 | < 100 nM | < 100 nM | 100 to 1000 nM | > 10000 nM | CN(C/C=C/C(=O)N1CCC[C@@H](Nc2n[nH]c3nccc(Oc4ccc(Oc5ccccc5)cc4)c23)C1)C1CC1 [compound 8, (2E)-4-[cyclopropyl(methyl)amino]-1-[(3R)-3-{[4-(4-phenoxyphenoxy)-1H-pyrazolo[3,4-b]pyridin-3-yl]amino}piperidin-1-yl]but-2-en-1-one]
12 | < 100 nM | 100 to 1000 nM | 1000 to 10000 nM | > 10000 nM | CCNC(=O)N1CCC[C@@H](Nc2n[nH]c3nccc(Oc4ccc(C(=O)Nc5cc(C(F)(F)F)ccn5)cc4)c23)C1 [compound 207, (3R)-N-ethyl-3-{[4-(4-{[4-(trifluoromethyl)pyridin-2-yl]carbamoyl}phenoxy)-1H-pyrazolo[3,4-b]pyridin-3-yl]amino}piperidine-1-carboxamide]
13 | < 100 nM | 100 to 1000 nM | > 10000 nM | > 10000 nM | Cc1ccnc(NC(=O)c2ccc(Oc3ccnc4[nH]nc(N[C@@H]5CCCN(C(=O)C(C)(C)C#N)C5)c34)cc2)c1 [compound 102, 4-[(3-{[(3R)-1-(2-cyano-2,2-dimethylacetyl)piperidin-3-yl]amino}-1H-pyrazolo[3,4-b]pyridin-4-yl)oxy]-N-(4-methylpyridin-2-yl)benzamide]
14 | < 100 nM | 100 to 1000 nM | < 100 nM | < 100 nM | C=CC(=O)N1CCC[C@@H](Nc2n[nH]c3nccc(Oc4ccc(C(=O)Nc5nc6ccccc6s5)cc4)c23)C1 [compound 162]
15 | < 100 nM | 1000 to 10000 nM | 1000 to 10000 nM | 100 to 1000 nM | COCC#CC(=O)N1CCC[C@@H](Nc2n[nH]c3nccc(Oc4ccc(C(=O)Nc5cc(C)ccn5)cc4)c23)C1 [compound 281, (R)-4-(3-(1-(4-methoxybut-2-ynoyl)piperidin-3-ylamino)-1H-pyrazolo[3,4-b]pyridin-4-yloxy)-N-(4-methylpyridin-2-yl)benzamide]
16 | < 100 nM | > 10000 nM | 1000 to 10000 nM | > 10000 nM | CCNC(=O)N1CCC[C@@H](Nc2n[nH]c3nccc(Oc4ccc(C(=O)Nc5ccccn5)cc4)c23)C1 [compound 229, (3R)-N-ethyl-3-[(4-{4-[(pyridin-2-yl)carbamoyl]phenoxy}-1H-pyrazolo[3,4-b]pyridin-3-yl)amino]piperidine-1-carboxamide]
17 | 100 to 1000 nM | > 10000 nM | 1000 to 10000 nM | 1000 to 10000 nM | Cc1csc(NC(=O)c2ccc(Oc3ccnc4[nH]nc(N[C@@H]5CCCN(C(=O)/C=C/CN(C)C6CC6)C5)c34)cc2)n1 [compound 139]
18 | < 100 nM | 100 to 1000 nM | > 10000 nM | 100 to 1000 nM | CC#CC(=O)N1CCC[C@@H](Nc2n[nH]c3nccc(Oc4ccc(C(=O)Nc5nc6ccccc6s5)cc4)c23)C1 [compound 183]
19 | 100 to 1000 nM | > 10000 nM | 1000 to 10000 nM | 100 to 1000 nM | C=CC(=O)N1CCC[C@@H](Nc2n[nH]c3nccc(O[C@H]4CC[C@H](C(=O)Nc5ncc(C)s5)CC4)c23)C1 [compound 144]
20 | < 100 nM | 100 to 1000 nM | 1000 to 10000 nM | > 10000 nM | Cc1ccnc(NC(=O)c2ccc(Oc3ccnc4[nH]nc(N[C@@H]5CCN(C#N)C5)c34)cc2)c1 [compound 275, (R)-4-(3-(1-cyanopyrrolidin-3-ylamino)-1H-pyrazolo[3,4-b]pyridin-4-yloxy)-N-(4-methylpyridin-2-yl)benzamide]
21 | < 100 nM | 1000 to 10000 nM | 1000 to 10000 nM | 100 to 1000 nM | C=CC(=O)N1CCC[C@@H](Nc2n[nH]c3nccc(Oc4ccc(-c5nc6ccccc6o5)cc4)c23)C1 [compound 194, 1-[(3R)-3-({4-[4-(1,3-benzoxazol-2-yl)phenoxy]-1H-pyrazolo[3,4-b]pyridin-3-yl}amino)piperidin-1-yl]prop-2-en-1-one]
22 | < 100 nM | 1000 to 10000 nM | 100 to 1000 nM | 1000 to 10000 nM | C=CC(=O)N1CCC[C@@H](Nc2n[nH]c3nccc(Oc4ccc(-c5ncc(C)s5)cc4)c23)C1 [compound 158]
